Patent US20250082624A1, “METHODS OF TREATING COGNITIVE IMPAIRMENT” (NeuroTherapia, Inc., priority 2023, published 2025)
Several values for one entry are separate records, joined by “and”; a condition that tells them apart may be missing. Identical values can stand only once. Entries after “also recorded” stand apart in the source; their conditions may differ.

What was measured:
healthy volunteers [1] = assay: Phase 1a single ascending dose study; format: in vivo, human
healthy volunteers [2] = conditions: cited from earlier work
AD cohort = assay: Cognitive testing ADAS-COG in AD cohort; format: in vivo, human; conditions: 90 mg QD 7 days
Source text: Methods: All study procedures were approved by the IRB, and informed consent was obtained. Three cohorts of volunteers 45-80 years of age with well-controlled comorbidities (NOAD) and one cohort of AD patients diagnosed with cognitive impairment consistent with prodromal AD per International Working Group criteria or mild AD per National Institute on Aging—Alzheimer's Association criteria (n=6 active, 2 placebo per cohort) were enrolled. Participants were admitted to the study site for the duration of the dosing and returned 7-12 days after the last dose for a safety visit. Participants received NTRX-07 (10, 30, or 90 mg) or a placebo in a double-blinded randomization orally once daily for seven days. Subjects were assessed for changes in vital signs, including maneuvers to induce lightheadedness, electrocardiograms, 24-hour electroencephalograms (EEG), and safety laboratory studies. The second cohort returned and received a single repeat dose after a standard high-fat meal. The AD cohort also underwent cognitive testing and had blood samples for biomarkers drawn. Subjects had PK sampling done after the first and final dose of the study drug. An independent safety review committee conducted a blinded safety review of adverse events and plasma levels between each cohort.
(§1) Assessments: Subjects were assessed for changes in vital signs, orthostatic blood pressure, Romberg test, nystagmus, timed get up and go, electrocardiograms, electroencephalograms (EEG), and laboratory studies. Subjective questionnaires of drug effects (ARCI-M) were administered. Cohort B returned and received a single repeat dose after a standard high-fat meal. The AD cohort also underwent cognitive testing (MMSE, ADAS-COG, MOCA) and had blood samples for biomarkers drawn.
Exploratory endpoints include cognitive testing and potential plasma biomarkers of inflammation. The small group size (6 on treatment, 2 placebo) precludes statistical analysis, but the goals were to gain insights for future study design. Exploratory endpoints include: • MMSE, MOCA & ADAS-COG • IL-12p70, IL-10, IL-4, IL-5, INFg, IL-6, IL-8, IL-22, TNFa, IL-10, hCRP, Chitinase-3, TREM-2, IL-2, Neurogranin, Total Tau, AB42, AB40, NF-LIGHT, pTau-181

[3] = test system: volunteers and AD patients; assay: 24-hour EEG safety assessment and post-hoc qEEG analysis; format: in vivo, human; conditions: AD patients, 90 mg QD 7 days, post hoc exploratory
Method: Protocol-specified EEG assessments were for safety assessment of any potential epileptogenic changes. A post-hoc analysis of quantitative EEG (qEEG) changes was also performed.
(§2) An informational letter was filed with the FDA to inform them of this study. The study was designed as follows: • 3 healthy cohorts (cohorts A-C) followed by AD cohort (cohort D) treated at MTD • 6 treated, 2 placebos in each cohort • Doses: 10, 30, 90 mg/treatment—latter doses can be adjusted based on PK assessment • In unit, 7 days of treatment • Monitor vertigo with various tests: (1) timed get-up and go, (2) Nystagmus test, (3) Romberg test, and (4) changes in orthostatic blood pressure (Day 1, 3 and 8) • Use 24 hr EEG monitoring for CNS safety assessment • Assess plasma biomarkers of inflammation and AD pre- and post-treatment in AD cohort • Assess changes on cognition post-treatment using MMSE and ADAS-cog • Fed/fasted study to determine food effects on PK as a subset of the Phase 1b
No subjects had clinically meaningful abnormal values or changes from baseline, nor differences between placebo and active drug, in EEG readings in any of the 4 cohorts.

[4] = test system: volunteers and AD patients; assay: Orthostatic blood pressure and vertigo tests (timed get-up and go, Nystagmus test, Romberg test); format: in vivo, human; conditions: Phase 1b
Method: as §1, §2

Q: For `CC1(Cc2ccccc2)COc2cc(C(=O)N3CCCCC3)ccc21` (stereo not shown) [NTRX-07, 3-benzyl-3-methyl-2,3-dihydrobenzofuran-6-carboxylic acid-piperidine amide], which “No adverse events level” value (healthy volunteers [1]; Phase 1a single ascending dose) is on record?
A: 2 mg/kg

Q: And the “Adverse events in Phase 1a” value (healthy volunteers [1]; single ascending dose)?
A: Only minor, non-dose limiting adverse events

Q: And the “Adverse effect at high doses” value (healthy volunteers [2]; single doses of 3.5 and 4 mg/kg)?
A: transient lightheadedness

Q: And the Major adverse effects (healthy volunteers [2]; single doses up to 2 mg/kg, healthy volunteers)?
A: no major adverse effects

Q: What about the “ADAS-COG Mean (StdDev)” value (AD cohort; Day 8) of the same molecule?
A: 12.72 (1.56)

Q: What about the ADAS-COG (AD cohort; Day 8, individual subjects) of the same molecule?
A: 11.00 and 15.33 and 11.67 and 12.67 and 12.00 and 13.67

Q: What about the “ADAS-COG Mean (StdDev)” value (AD cohort; Day −2 (baseline)) of the same molecule?
A: 17.50 (2.83)

Q: What about the ADAS-COG (AD cohort; Day −2 (baseline), individual subjects) of the same molecule?
A: 17.00 and 18.33 and 13.33 and 22.00 and 18.00 and 16.33

Q: And the “ADAS-COG Mean (StdDev)” value (AD cohort; EOS Day 14-19)?
A: 13.17 (3.46)

Q: And the ADAS-COG (AD cohort; EOS Visit (Day 14-19), individual subjects)?
A: 9.33 and 19.33 and 11.00 and 12.00 and 13.00 and 14.33

Q: And the ADAS-COG trend (AD cohort; immediately post-treatment)?
A: Trend toward improvement

Q: And the “qEEG mean frequency (AD effect)” value [3]?
A: treatment partially reversed this AD effect; also recorded: Trend towards improvement; also recorded: partial reversion of AD effect; also recorded: increasing mean frequency

Q: What about the “Orthostatic events observed during trial: Severity” value ([4]; individual subjects on NTRX-07 (Cohort B 30 mg, C and D 90 mg QD)) of the same molecule?
A: Mild

Q: What about the “Primary side effect observed” value ([4]; usually with early doses) of the same molecule?
A: mild transient orthostatic changes in blood pressure

Q: What about the “Orthostasis: Incidences” value ([4]; treated subjects) of the same molecule?
A: 16.7%

Q: And the “Orthostasis: Subjects who had an incident” value ([4]; treated subjects)?
A: 16.7%
